Consider two compounds from US20060171983A1, “Use of Vitamin D receptor activators or Vitamin D analogs to treat cardiovascular disease” (priority 2003, published 2006).

Series [1] is described as follows: Observational cohort study of hospitalization outcomes in hemodialysis patients. The class given is in vivo, human. An excerpt: This study was expanded to include patients who received no Vitamin D receptor activator treatment. [“Improved hospitalization outcomes in hemodialysis patients treated with paricalcitol.” J. Melnick, et al., abstract book from World Congress of Nephrology, Jun. 8-12, 2003, Berlin.

For another series, the system named is PAI-1. Kind of series: PAI-1 Western blot in primary culture of human coronary artery smooth muscle cells. The series is classed as cell-based. The following applies: 24 hr. As to the method:
Human coronary artery smooth muscle cells were incubated with paricalcitol or calcitriol at the indicated concentration for 24 hr at 37° C. Samples were solubilized in SDS-PAGE sample buffer, and the protein content in each sample was determined by the Bio-Rad dye-binding protein assay. Samples were resolved by SDS-PAGE using a 4-12% gel, and proteins were electrophoretically transferred to PVDF membrane for Western blotting. The membrane was blotted for 1 h at 25° C. with 5% nonfat dry milk in PBS-T and then incubated with a mouse anti-PAI-1 monoclonal antibody in PBS-T overnight at 4° C. The membrane was washed with PBS-T and incubated with a horseradish peroxidase-labeled […] antibody for 1 h at 25° C. The membrane was then incubated with detection reagent (SuperSignal WestPico). The specific bands were visualized by exposing the paper to Kodak BioMax films.
(In general: In western blotting, separated proteins are transferred to a membrane and probed.)

The next series deals with human CASMC. Kind of series: 45Ca uptake into primary culture of human coronary artery smooth muscle cells. The following applies: 1-100 nM, cells in N1 or 60% N1/40% P1 media, 5 days. As to the method: Primary cultured human CASMC were grown to >80% confluence and used within five passages. Cells were treated with drugs for 5 days in the appropriate medium, and then changed back to base medium (N1: DMEM containing 1.8 mM Ca^+2 and 0.9 mM PO−4) containing 0.2 μCi/ml ^45Ca for 24 hr. Afterwards, cells were washed with PBS three times and radioactivity measured by liquid scintillation.

Series [2] has as its system bovine vascular smooth muscle cells (SMC). The following applies: 10^-7 to 10^-9 M, in vitro; cited from earlier work.
Series [3] can be described thus: Vascular calcification in 5/6 nephrectomized uremic rats. The class given is in vivo, rat. As to the method: The 5/6 nephrectomized rats were obtained from Charles River Labs. (Wilmington, Mass.). Two weeks after nephrectomy, rats were put on a diet containing 0.9% phosphorous and 0.6% calcium for 4 weeks, followed by treatment with vehicle (5% ethanol+95% propylene glycol, 0.4 ml/kg), paricalcitol or doxercalciferol at 0.67 μg/kg, i.p., 3 times/week, for 2 weeks. Twenty-four hours after the last dosing, blood was collected via tail vein under ketamine anesthesia (50 mg/kg) and aorta collected for calcification studies. […] After the aortas were removed in a sterile manner from the rats, the aventitia was gently removed and each aorta was washed three times with medium. A segment of each aorta was processed for calcium and phoshphorus determination. A separate portion of each aorta was denuded, cut into 2-3-mm rings and placed in DMEM containing 0.2 μCi/ml ^45Ca for 3 days at 37° C. Afterwards, aortic rings were washed, dried, weighed, and then dissolved to determine radioactivity. […] Both paricalcitol and doxercalciferol at 0.67 μg/kg elevated iCa (˜25%) and suppressed PTH (>90%).

The format of series [4] is in vivo, rat. How it is done:
It is clinically important to suppress elevated serum PTH levels in ESRD patients with established secondary hyperparathyroidism (SHPT) independent of hypercalcemia. Moreover, the 5/6 uremic rat model has effectively predicted the clinical profile of vitamin D analogues with respect to PTH and hypercalcemia. Thus, a direct comparison was conducted of paricalcitol (PARI) and doxercalciferol (DOX) in male Sprague Dawley rats subjected to 5/6 nephrectomy (surgical ablation) placed on 4 weeks of a high phosphorous diet (0.9% phos., 0.6% Ca) to establish SHPT. On Day 0, rats received vehicle (VEH; 5% ethanol, 95% propylene glycol; 0.4 ml/kg; IP) or drug (0.083, 0.17, 0.33, 0.66 mcg/kg; n=7-10/group) 3 times/week for 12 days. Blood samples were collected 24 hr post dose (Day 13). Day 0 values (mean±SEM) for: creatinine (VEH vs sham) were 1.02±0.05 vs 0.48±0.01 mg/dL; PTH, 1320±185 vs 178±11 pg/ml; blood ionized calcium (iCa; 1.26±0.01 vs 1.30±0.01 mmol/L); phosphorous (8.70±0.34 vs 7.36±0.09 mg/dL). In VEH, the ratio of Day 13/Day 0 iCa values declined to 0.93±0.02 vs 1.02±0.01 for sham; PTH and phosphorous tended to increase. […] PARI had no effect on iCa at 0.33 mcg/kg whereas the iCa ratio increased modestly to 1.05±0.02*# at 0.66 mcg/kg, less than that of DOX. The Day 13/Day 0 PTH ratios for DOX fell to 0.43±0.12, 0.26±0.06*, and 0.22±0.11* in response to 0.18, 0.33, 0.66 mcg/kg, respectively, while PARI decreased PTH ratios to 0.37±0.07*, 0.33±0.06*, 0.13±0.02*. Serum phosphorus was not affected in any treatment group. […] Thus, in the uremic rat with established SHPT, DOX suppresses serum PTH levels concomitant with dose-dependent elevations in ionized calcium greater than those caused by equal doses of. PARI. At these doses, PARI effectively reduces PTH without eliciting dose-dependent changes in ionized blood calcium. *=p<0.05 vs. VEH ANOVA; # p<0.05 unpaired t test DOX vs PARI

Series [5] is described as follows: Active calcium transport in duodenum ex vivo. Details: species or system rat. The following applies: uremic rats with SHPT.
The mark [6] stands for this setting: 0.67 μg/kg i.p. 3 times/week for 2 weeks.

Read-outs that look alike come from different tables or passages of the source.

For the compound `C=C1/C(=C\C=C2/CCC[C@]3(C)[C@@H]([C@H](C)CCCC(C)(C)O)CC[C@@H]23)C[C@@H](O)C[C@@H]1O` [calcitriol], in series [1] (hemodialysis patients, FIG. 2), the “median number of days spent in the hospital (hospital days per year)” value is given as 10.6 days and the “median number of hospitalizations in a year” value was 2.2. In series [1] (regression analysis, FIG. 3), the “fewer hospital days compared to the No Vitamin D group” value was found to be 7.7 days and the “fewer hospitalizations compared to the No Vitamin D group” value was “no statistical difference”. For the same compound, the “potency in reducing the PAI level” value in the series on PAI-1 is “equally potent”. For the same compound, the “effect on 45Ca uptake” value in the series with human CASMC is recorded as “no significant effects”. Also, in series [2], the “calcification of bovine vascular smooth muscle cells” value is “dose dependent increase”.
Consider `C=C1/C(=C\C=C2/CCC[C@]3(C)[C@@H]([C@H](C)/C=C/[C@H](C)C(C)C)CC[C@@H]23)C[C@@H](O)C[C@@H]1O` [doxercalciferol], for which the “elevation of iCa” value in series [3] (0.67 μg/kg) was around 25%. In addition, the “Ca content in aorta compared to vehicle” value in series [3] (setting [6]) came out at 1.0 fold. Moreover, the “phosphorus content in aorta compared to vehicle” value in series [3] (setting [6]) is 17 fold. Besides, the “45Ca uptake in aorta rings compared to vehicle” value in series [3] (0.67 μg/kg i.p. 3 times/week for 2 weeks, rings 3 days in 45Ca) was 40 fold. For the same compound, the figures for the “Day 13/Day 0 PTH ratio” value in series [4] (0.18 mcg/kg IP 3 times/week for 12 days), in series [4] (0.33 mcg/kg IP 3 times/week for 12 days) and in series [4] (0.66 mcg/kg IP 3 times/week for 12 days) were 0.43±0.12, 0.26±0.06 and 0.22±0.11, respectively. Also, the “active calcium transport in duodenum ex vivo” value in series [5] is given as “dose-dependent increase”.
